Data published in a melting point compilation (Tetko et al.; mined from patent text by program, amines drawn as free bases though some values may be those of a salt).

| Compound | melting point [°C] |
| --- | --- |
| CN1CCN(c2ccc(-c3cnc4c(c3)N(Cc3c(F)ccc(F)c3Cl)CCN4)cn2)CC1 | 219 |
| CC[Si](C#CC1(COCc2ccccc2)OC(n2ccc(=O)[nH]c2=O)C(O)C1OCc1ccccc1)(CC)CC (stereo unspecified) | 119 to 120 |
| CCOP(=O)(CC(=O)Nc1cc2c(Nc3ccc(F)c(Br)c3)ncnc2cn1)OCC | 214 to 217 |
| COc1cccc2c1OC1C3CCC4(C(=O)N(CC5CC5)CCC214)C(C(C)(O)C(C)(C)C)C3 (stereo unspecified) | 205 to 206 |
| COc1ccccc1N1CCN(CCn2c(=O)c3sccc3n(CCC(=O)O)c2=O)CC1 | 215 to 216 |
| c1ccc(COc2ccc(-c3nc(COc4cccc(CCCn5ccnc5)c4)co3)cc2)cc1 | 144 to 145 |
| C[C@@H]1[C@H](c2ccccc2)OC(=O)N1C(=O)CC1c2ccccc2C=Cc2ccccc21 | 172 to 173 |
| Cc1ccc(-c2[nH]c3ccccc3c(=O)c2Cc2ccncc2)cc1 | 264 to 266 |
| Fc1ccc(-c2nc3ccc(N4CCC5(CCCNC5)CC4)nn3c2-c2ccnc3[nH]ccc23)cc1 | 279 to 280 |
| NCCc1c[nH]c2ccc(Cc3ccccc3)cc12 | 150 to 153 |
| Cn1cncc1C(O)c1ccc2[nH]c(=O)cc(-c3cccc(Cl)c3)c2c1 (stereo unspecified) | 186 |
| Cn1cnc2c(cnn2-c2ncc(C(F)(F)F)cc2Cl)c1=O | 253 |
| CCCC(Cc1ccc(OCCNC(=O)c2ccc(-c3ccccn3)cc2)cc1)C(=O)O (stereo unspecified) | 81 to 82.5 |
| CCCCCCCCCCCCS(=O)(=O)c1ccc2c(c1)C(=O)c1c(c(O)c3ccccc3c1O)C2=O | 185 to 186 |
| C=CCOC(=O)c1cc(OCC=C)c(OCC=C)c(S(C)(=O)=O)c1 | 78 to 80 |
| Clc1cc(NC2CCCC2)nc(NC2CCCC2)n1 | 94 to 98 |
| CC(C)(C)c1ccc2c(O)c(-c3ccccc3)sc2n1 | 181 to 183 |
| NC(=NCC(F)(F)F)Nc1ccnc(SCCN2C(=O)c3ccccc3C2=O)n1 | 192 to 195 |
| CCOC(=O)c1cc(-c2ccccc2)n(-c2cccc(C(C)=O)c2)c1C | 102 to 104 |
| CC(=O)N(c1cc(F)c(C#N)cc1F)c1nnnn1-c1ccc(OC(F)(F)F)cc1 | 108 to 110 |
| CCCC(=O)Nc1ccc(CCn2c(=O)n(CCC)c(=O)c3[nH]c(C4CCCC4)nc32)cc1 | > 270 |
| Cc1nn(-c2ccccn2)c2nc3ccccc3c(Cl)c12 | 157 to 159 |
| CCCCCc1ccc(C#Cc2c3ccccc3c3ccc4c(C#Cc5ccc(CCCCC)cc5)c5ccccc5c5ccc2c3c45)cc1 | 256 to 257 |
| Cc1ccc(Cn2ncnc2C(NS(=O)(=O)c2ccc(Cl)s2)C(C)C)cc1 (stereo unspecified) | 124 to 125 |

Next, values leading:

| melting point [°C] | Compound |
| --- | --- |
| 170 | CNc1cc2c(cc1[N+](=O)[O-])OCO2 |
| 122 to 124 | O=C1N[C@H](C(=O)NCCO[N+](=O)[O-])[C@@H](c2ccccc2)O1 |
| 53 to 54 | CC(=NOCC1CC1)c1cc(Cl)ccc1NS(=O)(=O)C(F)(F)F |
| 193 to 197 | COc1ccc(NC(=O)c2ccc([N+](=O)[O-])cc2N)cc1 |
| 102 to 105 | O=C1c2cc([N+](=O)[O-])ccc2CC1Br (stereo unspecified) |
| 155 to 157 | CCOC(=O)C1=C(CSC(C)=O)NC(C)=C(C#N)C1c1cccc([N+](=O)[O-])c1 (stereo unspecified) |
| 245 to 249 | CC(=O)Nc1ccccc1-c1ccc2c(c1)S(=O)(=O)NC(C1CCCCC1)N2 (stereo unspecified) |
| 77 to 80 | CC1(C)CC(SCc2c(F)cccc2F)=NO1 |
| 108 to 109 | COC(=O)Cc1cccc(OC)c1OCCCc1cn(-c2ccc([N+](=O)[O-])cn2)nc1C(C)C |
| 138 to 140 | COCc1cn(-c2cccc(C(F)(F)F)c2)nc(C(=O)OC)c1=O |
| 122 to 124 | Cc1ccc(S(=O)(=O)Nc2ccc(SC#N)cc2)cc1 |
| 115 to 117 | N#Cc1ccccc1Nc1cc2c(cc1Nc1ccccc1)C(=O)NC2=O |
